One series deals with human keratinocytes. As to conditions: cited from earlier work.
The subject of the next series is fibroblast. As to conditions: cited from earlier work.
The subject of the next series is skin. As to conditions: rat; cited from earlier work.
The nature of series [1]: Solubility of DHEA at ambient temperature in different solvents (HPLC of supernatant). Type of series: physicochemical. As to conditions: ambient temperature (25° C.), after 24 hours. Here is the method: The solubility of DHEA was evaluated at ambient temperature in different solvents. For this purpose the DHEA was dispersed in excess in the solvent in question, which had been brought to 60° C. beforehand. This temperature was maintained for one hour, with stirring using a magnetic bar. The suspension was subsequently returned to ambient temperature (25° C.). After 24 hours the suspension was centrifuged in order to remove the undissolved DHEA crystals. The supernatant was taken and checked for the absence of DHEA crystals by cross-polarized light microscopy. This supernatant was subsequently analysed by HPLC. The amount of DHEA detected is taken to correspond to its maximum solubility in the solvent in question.

SMILES strings stand for the structures.

Turning to `C[C@]12CC[C@H](O)CC1=C[C@@H](O)[C@@H]1[C@@H]2CC[C@]2(C)C(=O)CC[C@@H]12` [7α-hydroxy-DHEA], in the series with human keratinocytes, the “viability of human keratinocytes” value is “increase”. Also, the fibroblast proliferation entry with fibroblast was “increase”. In addition, in the series with skin, the “elastin content and collagen content of the skin” value is given as “increases”; the “thickness of the dermis” value is “increases”.

For the molecule `C[C@]12CC[C@H](O)CC1=CC[C@@H]1[C@@H]2CC[C@]2(C)C(=O)CC[C@@H]12` [DHEA, dehydroepiandrosterone], the DHEA solubility in series [1] (solvent Dipropylene glycol) turned out to be 10.48% by weight; in series [1] (solvent Glycerol), 0.15% by weight; in series [1] (solvent PEG-400), 3.67% by weight; in series [1] (solvent Propylene glycol) it was 5.88% by weight; in series [1] (solvent Sorbitol), 0.05% by weight.

The values above are taken from patent US20040186085A1, “Composition containing a steroid and a glycol” (priority 2001, published 2004).
